# Measurements: patent publication US20230025327A1, “CONJUGATES OF TUBULYSIN DERIVATIVES AND CELL BINDING MOLECULES AND METHODS OF MAKING” (Hangzhou DAC Biotech Co., Ltd., priority 2019, published 2023)
# Tested on: NCI-N87, a human gastric carcinoma cell line
# Details: read-out: IC50 of NCI-N87 cells, 120 hours incubation, MTT
# Description: The inhibition % was calculated according to the following equation: inhibition %=[1-(assay-blank)/(control-blank)]×100.
substance,measurement,value
T-DM1,IC50,0.32 nM
